Experimental data as given in PubChem BioAssay AID651650 (Sanford-Burnham Center for Chemical Genomics, 2012).
Active and inactive are the calls of the source.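 The calls were made as follows: active = mean IC50 below 20 µM in each of the two panels, so potent in both; inactive = the rest.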

Target: Neuropilin-1 (Homo sapiens) (UniProt O14786)
Experiment: blockers of CendR peptide binding to NRP-1 – biochemical, FP and AlphaScreen panel, dose response (AID 651650)
Details: NRP-1 b1b2 / RPARPAR peptide binding, FP or AlphaScreen
[1] = AlphaScreen, run 1, individual panel run IC50
[2] = FP, run 1, individual panel run IC50
[3] = FP, run 2, individual panel run IC50

Neuropilin-1 (Homo sapiens), sequence (O14786 whole entry, looked up): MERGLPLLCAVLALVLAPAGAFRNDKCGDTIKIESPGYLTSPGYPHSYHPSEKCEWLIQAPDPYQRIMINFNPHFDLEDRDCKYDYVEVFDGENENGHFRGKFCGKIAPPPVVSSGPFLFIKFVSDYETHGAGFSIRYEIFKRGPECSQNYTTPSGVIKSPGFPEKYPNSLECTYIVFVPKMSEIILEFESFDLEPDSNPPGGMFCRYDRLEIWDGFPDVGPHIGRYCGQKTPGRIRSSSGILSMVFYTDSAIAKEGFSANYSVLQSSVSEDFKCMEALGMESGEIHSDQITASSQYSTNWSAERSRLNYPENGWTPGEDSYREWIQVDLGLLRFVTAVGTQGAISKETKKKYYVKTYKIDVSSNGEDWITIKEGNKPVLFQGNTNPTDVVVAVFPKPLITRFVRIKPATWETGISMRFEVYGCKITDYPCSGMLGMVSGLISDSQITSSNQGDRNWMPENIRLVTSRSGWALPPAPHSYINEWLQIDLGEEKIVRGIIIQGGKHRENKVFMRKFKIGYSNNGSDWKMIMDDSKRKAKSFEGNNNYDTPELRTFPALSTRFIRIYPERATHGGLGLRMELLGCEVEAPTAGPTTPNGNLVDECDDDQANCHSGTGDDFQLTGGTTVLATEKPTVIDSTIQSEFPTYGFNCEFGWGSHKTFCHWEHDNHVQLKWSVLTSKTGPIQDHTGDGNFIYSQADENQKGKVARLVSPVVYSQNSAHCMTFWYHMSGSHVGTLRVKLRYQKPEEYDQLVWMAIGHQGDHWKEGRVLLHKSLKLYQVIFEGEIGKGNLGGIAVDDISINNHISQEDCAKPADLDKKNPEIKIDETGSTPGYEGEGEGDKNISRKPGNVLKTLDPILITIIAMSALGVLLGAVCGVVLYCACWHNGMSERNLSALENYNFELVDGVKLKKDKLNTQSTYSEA

In the case of CC(=O)C(=Cc1ccc(Cl)cc1)C(=O)c1ccccc1, the IC50 (AlphaScreen, mean of runs) is reported as > 100 µM (inactive), the IC50 [1] is reported as > 100 µM and the IC50 (FP, mean of runs) is reported as > 95 µM (inactive). For the same compound, the IC50 [2] was > 95 µM and the IC50 [3] was > 95 µM.
Cc1ccc(-n2c(-c3ccco3)nc3c(cnn3-c3ccc(C)cc3)c2=O)cc1 was tested, and the IC50 (AlphaScreen, mean of runs) was > 100 µM (inactive), the IC50 [1] was > 100 µM and the IC50 (FP, mean of runs) was “inactive”. For the same compound, the IC50 [2] was 39.7 µM and the IC50 [3] was 36.3 µM.
For COc1ccccc1N1CCN(C2CCCN(C(=O)Cn3cccn3)C2)CC1 (stereo not given), the IC50 (AlphaScreen, mean of runs) was > 100 µM (inactive), the IC50 [1] was > 100 µM and the IC50 (FP, mean of runs) was > 95 µM (inactive). For the same compound, the IC50 [2] was > 95 µM and the IC50 [3] was > 95 µM.
For CCOC(=O)C1CCN(S(=O)(=O)c2ccc3c(c2)CCN3C(=O)C2CCC2)CC1, the IC50 (AlphaScreen, mean of runs) was > 100 µM (inactive), the IC50 [1] was > 100 µM and the IC50 (FP, mean of runs) was > 95 µM (inactive). The IC50 [2] was > 95 µM and the IC50 [3] was > 95 µM.
With Cc1ccc(N(C(=O)c2ccc(CN3CCOCC3)o2)C(C(=O)NCCC(C)C)c2cccs2)c(C)c1 (stereo not given) the IC50 (AlphaScreen, mean of runs) was > 100 µM (inactive), the IC50 [1] was > 100 µM and the IC50 (FP, mean of runs) was > 95 µM (inactive). For the same compound, the IC50 [2] was > 95 µM and the IC50 [3] was > 95 µM.
CCOC(=O)N1CCN(C(=O)c2cc3n(n2)C(C(F)(F)F)CC(c2ccc4c(c2)OCO4)N3)CC1 (stereo not given) was tested, and the IC50 (AlphaScreen, mean of runs) was > 100 µM (inactive), the IC50 [1] was > 100 µM and the IC50 (FP, mean of runs) was > 95 µM (inactive). The IC50 [2] was > 95 µM and the IC50 [3] was > 95 µM.
For COC(=O)n1c(=O)oc2ccccc21, the IC50 (AlphaScreen, mean of runs) was > 100 µM (inactive), the IC50 [1] was > 100 µM and the IC50 (FP, mean of runs) was > 95 µM (inactive). The IC50 [2] was > 95 µM and the IC50 [3] was > 95 µM.
In the case of COC(=O)N[C@@H]1C[C@H]2[C@@H]3CC[C@H]4C[C@@H](OC)CC[C@]4(C)[C@H]3CC[C@]12C, the IC50 (AlphaScreen, mean of runs) is reported as “inactive”, the IC50 [1] is reported as 69.5 µM and the IC50 (FP, mean of runs) is reported as > 95 µM (inactive). For the same compound, the IC50 [2] was > 95 µM and the IC50 [3] was > 95 µM.
NC(=S)NNC(=S)Nc1ccccc1 was tested, and the IC50 (AlphaScreen, mean of runs) was > 100 µM (inactive), the IC50 [1] was > 100 µM and the IC50 (FP, mean of runs) was > 95 µM (inactive). The IC50 [2] was > 95 µM and the IC50 [3] was > 95 µM.
Cc1cccc(N(CC(=O)NC2CCCC2)C(=O)CS(=O)CC(=O)Nc2ccc3c(c2)OCO3)c1C (stereo not given) was tested, and the IC50 (AlphaScreen, mean of runs) was > 100 µM (inactive), the IC50 [1] was > 100 µM and the IC50 (FP, mean of runs) was > 95 µM (inactive). For the same compound, the IC50 [2] was > 95 µM and the IC50 [3] was > 95 µM.
With O=C(COC(=O)C1CC(=O)N(Cc2ccccc2)C1)Nc1ccccc1F (stereo not given) the IC50 (AlphaScreen, mean of runs) was “inactive”, the IC50 [1] was 44.6 µM and the IC50 (FP, mean of runs) was > 95 µM (inactive). The IC50 [2] was > 95 µM and the IC50 [3] was > 95 µM.
c1ccc(OCCCN2CCCC2)cc1 was tested, and the IC50 (AlphaScreen, mean of runs) was > 100 µM (inactive), the IC50 [1] was > 100 µM and the IC50 (FP, mean of runs) was > 95 µM (inactive). For the same compound, the IC50 [2] was > 95 µM and the IC50 [3] was > 95 µM.
For OCC[C@H]1C[C@H](O)[C@@H](O)[C@]2(CCCCO2)O1, the IC50 (AlphaScreen, mean of runs) was > 100 µM (inactive), the IC50 [1] was > 100 µM and the IC50 (FP, mean of runs) was > 95 µM (inactive). For the same compound, the IC50 [2] was > 95 µM and the IC50 [3] was > 95 µM.
For Cc1ccccc1Nc1cc(=O)oc2ccccc12, the IC50 (AlphaScreen, mean of runs) was > 100 µM (inactive), the IC50 [1] was > 100 µM and the IC50 (FP, mean of runs) was > 95 µM (inactive). The IC50 [2] was > 95 µM and the IC50 [3] was > 95 µM.
With COc1ccc(Cl)cc1S(=O)(=O)N1CCN(CC(=O)C(C)(C)C)CC1 the IC50 (AlphaScreen, mean of runs) was > 100 µM (inactive), the IC50 [1] was > 100 µM and the IC50 (FP, mean of runs) was > 95 µM (inactive). For the same compound, the IC50 [2] was > 95 µM and the IC50 [3] was > 95 µM.
With c1ccc2c(c1)CCCN2Cc1nnnn1CC1CCCO1 (stereo not given) the IC50 (AlphaScreen, mean of runs) was “inactive”, the IC50 [1] was 25.8 µM and the IC50 (FP, mean of runs) was “inactive”. For the same compound, the IC50 [2] was 33.9 µM and the IC50 [3] was > 95 µM.
For CC(C)(C)OC(=O)NCc1ccc(CNC(=O)c2nc[nH]c2C(=O)N2CCN(C(=O)OC(C)(C)C)CC2)cc1, the IC50 (AlphaScreen, mean of runs) was > 100 µM (inactive), the IC50 [1] was > 100 µM and the IC50 (FP, mean of runs) was > 95 µM (inactive). The IC50 [2] was > 95 µM and the IC50 [3] was > 95 µM.
For O=C(NCc1ccccc1)c1ccc(N2CCC3(CC2)CC(c2ccc(Cl)cc2)=NO3)c([N+](=O)[O-])c1, the IC50 (AlphaScreen, mean of runs) was “inactive”, the IC50 [1] was 22 µM and the IC50 (FP, mean of runs) was > 95 µM (inactive). For the same compound, the IC50 [2] was > 95 µM and the IC50 [3] was > 95 µM.
In the case of Fc1cc(Cl)ccc1Nc1nc(NCc2ccccc2)nc2ccsc12, the IC50 (AlphaScreen, mean of runs) is reported as > 100 µM (inactive), the IC50 [1] is reported as > 100 µM and the IC50 (FP, mean of runs) is reported as > 95 µM (inactive). For the same compound, the IC50 [2] was > 95 µM and the IC50 [3] was > 95 µM.
Cc1cccc(CN2CCN(C3CN(Cc4cn(Cc5cccc(Cl)c5)nn4)S(=O)(=O)C3)CC2)c1 (stereo not given) was tested, and the IC50 (AlphaScreen, mean of runs) was > 100 µM (inactive), the IC50 [1] was > 100 µM and the IC50 (FP, mean of runs) was > 95 µM (inactive). For the same compound, the IC50 [2] was > 95 µM and the IC50 [3] was > 95 µM.
In the case of O=[N+]([O-])c1cc(-c2csc(NCCc3nc4cc(C(F)(F)F)ccc4n3CCCO)n2)ccc1Cl, the IC50 (AlphaScreen, mean of runs) is reported as > 100 µM (inactive), the IC50 [1] is reported as > 100 µM and the IC50 (FP, mean of runs) is reported as > 95 µM (inactive). The IC50 [2] was > 95 µM and the IC50 [3] was > 95 µM.
In the case of CN(c1ccc(OCC(=O)OCC(=O)Nc2ccc([N+](=O)[O-])cc2)cc1)S(=O)(=O)c1cccs1, the IC50 (AlphaScreen, mean of runs) is reported as “inactive”, the IC50 [1] is reported as 44.1 µM and the IC50 (FP, mean of runs) is reported as > 95 µM (inactive). The IC50 [2] was > 95 µM and the IC50 [3] was > 95 µM.
